Source: the CheMixHub viscosity set
“And” between values parts separate entries of the source, which are not always exact repeats. Equal values may be shown once.

Test: xn = mol fraction of the nth substance listed

C[N+](C)(C)C.[OH-] + O
viscosity [mPa·s], 101 kPa
Settings | x1 = 0.00504 | x1 = 0.0103 | x1 = 0.02149 | x1 = 0.0337 | x1 = 0.04708 | x1 = 0.06181 | x1 = 0.07809
298.15 K | 0.9677 | 1.119 | 1.278 | 1.627 | 1.978 | 3.087 | 4.216
303.15 K | 0.8674 | 1.007 | 1.148 | 1.39 | 1.751 | 2.66 | 3.571
313.15 K | 0.7118 | 0.818 | 0.9314 | 1.158 | 1.399 | 2.031 | 2.665
323.15 K | 0.5982 | 0.678 | 0.7738 | 0.971 | 1.148 | 1.587 | 2.067

C[N+](C)(C)CCO.O=C([O-])c1ccccn1 + O
300 K, 100 kPa
Settings | viscosity [mPa·s]
x2 = 0.5 | 232.8
x2 = 0.68 | 35.3
x2 = 0.81 | 16.4

NCC(=O)NCC(=O)NCC(=O)NCC(=O)O + O
viscosity [mPa·s], 101 kPa
Settings | x1 = 9.96e-05 | x1 = 0.000119 | x1 = 0.0002046 | x1 = 0.0002554 | x1 = 0.0003681 | x1 = 0.0004221 | x1 = 0.0005133
298.15 K | 0.893 | 0.894 | 0.8971 | 0.8987 | 0.9022 | 0.9037 | 0.9045
308.15 K | 0.7219 | 0.7227 | 0.7246 | 0.7261 | 0.7289 | 0.7304 | 0.7337
318.15 K | 0.5985 | 0.5992 | 0.6011 | 0.6019 | 0.6045 | 0.606 | 0.6079

O=P([O-])([O-])[O-].[H+].[K+].[K+] + O
viscosity [mPa·s], 101 kPa
Settings | x1 = 0.0018 | x1 = 0.0054 | x1 = 0.0089 | x1 = 0.012 | x1 = 0.016
298.15 K | 0.931 | 1.001 | 1.091 | 1.203 | 1.329
303.15 K | 0.8465 | 0.9207 | 0.9963 | – | 1.204
308.15 K | 0.7552 | 0.814 | 0.8844 | 0.9818 | 1.081

[Cl-].[Cl-].[Mg+2] + O
viscosity
Settings | 293.15 K | 298.15 K | 303.15 K | 308.15 K | 318.15 K
101 kPa, x1 = 0.0944 | – | 13.8 mPa·s | – | – | –
101.3 kPa, x1 = 0.0009 | 1.025 mPa·s | 0.911 mPa·s | 0.8162 mPa·s | 0.7364 mPa·s | 0.6104 mPa·s
101.3 kPa, x1 = 0.0018 | 1.046 mPa·s | 0.9296 mPa·s and 0.936 mPa·s | 0.8329 mPa·s | 0.7517 mPa·s and 0.759 mPa·s | 0.629 mPa·s
101.3 kPa, x1 = 0.0045 | – | 0.988 mPa·s | – | 0.798 mPa·s | 0.662 mPa·s
101.3 kPa, x1 = 0.0089 | – | 1.075 mPa·s | – | 0.867 mPa·s | 0.72 mPa·s
101.3 kPa, x1 = 0.00893 | 1.219 mPa·s | 1.085 mPa·s | 0.9729 mPa·s | 0.8788 mPa·s | 0.7293 mPa·s
101.3 kPa, x1 = 0.0177 | 1.475 mPa·s | 1.314 mPa·s | 1.179 mPa·s | 1.065 mPa·s | 0.8849 mPa·s
101.3 kPa, x1 = 0.03478 | 2.199 mPa·s | 1.95 mPa·s | 1.747 mPa·s | 1.574 mPa·s | 1.302 mPa·s
101.3 kPa, x1 = 0.05127 | 3.332 mPa·s | 2.937 mPa·s | 2.616 mPa·s | 2.346 mPa·s | 1.926 mPa·s
101.3 kPa, x1 = 0.06722 | 5.271 mPa·s | 4.603 mPa·s | 4.064 mPa·s | 3.615 mPa·s | 2.926 mPa·s
101.3 kPa, x1 = 0.08263 | 9.001 mPa·s | 7.752 mPa·s | 6.761 mPa·s | 5.951 mPa·s | 4.726 mPa·s

CCCCOCCO + O=C1CCCCC1
298.15 K, 101 kPa
Settings | viscosity
x2 = 0.118 | 2.522 mPa·s and 2.642 mPa·s
x2 = 0.2314 | 2.28 mPa·s and 2.518 mPa·s
x2 = 0.3404 | 2.108 mPa·s and 2.402 mPa·s
x2 = 0.4453 | 1.972 mPa·s and 2.304 mPa·s
x2 = 0.5463 | 1.873 mPa·s and 2.217 mPa·s
x2 = 0.6436 | 1.795 mPa·s and 2.146 mPa·s
x2 = 0.7375 | 1.763 mPa·s and 2.087 mPa·s
x2 = 0.8281 | 1.766 mPa·s and 2.048 mPa·s
x2 = 0.9155 | 1.822 mPa·s and 2.024 mPa·s

CCOC(=O)CCl + O=C1CCCCC1
viscosity [mPa·s], 101.3 kPa
Settings | x1 = 0.1084 | x1 = 0.2069 | x1 = 0.306 | x1 = 0.3993 | x1 = 0.5032 | x1 = 0.6002 | x1 = 0.6945 | x1 = 0.7947 | x1 = 0.8975
298.15 K | 1.745 | 1.604 | 1.493 | 1.403 | 1.352 | 1.283 | 1.23 | 1.191 | 1.144
303.15 K | 1.595 | 1.47 | 1.376 | 1.298 | 1.244 | 1.184 | 1.139 | 1.101 | 1.058
308.15 K | 1.444 | 1.336 | 1.259 | 1.19 | 1.135 | 1.087 | 1.047 | 1.011 | 0.972

CNC=O + O=C1CCCCC1
viscosity [mPa·s], 101 kPa
Settings | x1 = 0.0868 | x1 = 0.1762 | x1 = 0.2682 | x1 = 0.3632 | x1 = 0.461 | x1 = 0.562 | x1 = 0.6662 | x1 = 0.7738 | x1 = 0.885
303.15 K | 1.804 | 1.786 | 1.762 | 1.739 | 1.714 | 1.693 | 1.668 | 1.646 | 1.618
308.15 K | 1.645 | 1.63 | 1.61 | 1.592 | 1.57 | 1.553 | 1.532 | 1.513 | 1.49
313.15 K | 1.472 | 1.463 | 1.451 | 1.439 | 1.425 | 1.413 | 1.4 | 1.387 | 1.371
318.15 K | 1.284 | 1.284 | 1.283 | 1.281 | 1.278 | 1.275 | 1.271 | 1.267 | 1.262

COC(=O)c1ccccc1 + O=C1CCCCC1
viscosity [mPa·s], 101 kPa
Settings | x1 = 0.0859 | x1 = 0.1728 | x1 = 0.2643 | x1 = 0.3589 | x1 = 0.4562 | x1 = 0.5517 | x1 = 0.6575 | x1 = 0.7664 | x1 = 0.8794
303.15 K | 1.713 | 1.643 | 1.593 | 1.552 | 1.535 | 1.548 | 1.56 | 1.597 | 1.646
313.15 K | 1.422 | 1.367 | 1.332 | 1.299 | 1.282 | 1.292 | 1.307 | 1.337 | 1.375

CC(C)OCCO + O=C1CCCN1
298.15 K, 101 kPa
Settings | viscosity [mPa·s]
x1 = 0.0071 | 13.9
x1 = 0.0159 | 13.59
x1 = 0.0316 | 12.93
x1 = 0.0611 | 11.92
x1 = 0.1046 | 10.57
x1 = 0.1603 | 9.092
x1 = 0.2294 | 7.709
x1 = 0.2699 | 7.051
x1 = 0.3267 | 6.264
x1 = 0.3725 | 5.709
x1 = 0.4121 | 5.308
x1 = 0.4371 | 5.073
x1 = 0.4623 | 4.846
x1 = 0.5125 | 4.439
x1 = 0.5675 | 4.067
x1 = 0.6092 | 3.792
x1 = 0.6833 | 3.388
x1 = 0.7418 | 3.111
x1 = 0.7986 | 2.871
x1 = 0.8498 | 2.672
x1 = 0.888 | 2.528
x1 = 0.9155 | 2.412
x1 = 0.943 | 2.304
x1 = 0.9583 | 2.252
x1 = 0.9786 | 2.193
